# Reference: PubChem BioAssay AID1963425 (Molecular Pharmacology Branch, DTP, NCI, 2024)
# pIC50: −log10 of the molar value.
# Test system: 323965-272-R-J2-PDC complex spheroid growth, % test/control
# Assay: Anticancer human tumor 323965-272-R-J2-PDC patient-derived pancreatic carcinoma cell line growth inhibition [Asc]
# Details: for pIC50: curve of first compound; for viability, T/C: stronger effect = lower value
# Method in brief: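 Tumor cells were grown as multicellular spheroids with stromal HUVEC and mesenchymal stem cells and treated singly or in combination. Concentrations fell in half-log steps from the clinical Cmax, or from 10 microM where none was known.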
# [1] = second compound 0.00949 µM, first compound 0.0316 µM
# [2] = second compound 0.00949 µM, first compound 0.1 µM
# [3] = second compound 0.00949 µM, first compound 0.316 µM
# [4] = second compound 0.00949 µM, first compound 1 µM
# [5] = second compound 0.00949 µM, first compound 3.16 µM
# [6] = second compound 0.00949 µM, first compound 10 µM
# [7] = second compound 0.03 µM, first compound 0.0316 µM
# [8] = second compound 0.03 µM, first compound 0.1 µM
# [9] = second compound 0.03 µM, first compound 0.316 µM
# [10] = second compound 0.03 µM, first compound 1 µM
# [11] = second compound 0.03 µM, first compound 3.16 µM
# [12] = second compound 0.03 µM, first compound 10 µM
# [13] = second compound 0.0949 µM, first compound 0.0316 µM
# [14] = second compound 0.0949 µM, first compound 0.1 µM
# [15] = second compound 0.0949 µM, first compound 0.316 µM
# [16] = second compound 0.0949 µM, first compound 1 µM
# [17] = second compound 0.0949 µM, first compound 3.16 µM
# [18] = second compound 0.0949 µM, first compound 10 µM
# [19] = second compound 0.3 µM, first compound 0.0316 µM
# [20] = second compound 0.3 µM, first compound 0.1 µM
# [21] = second compound 0.3 µM, first compound 0.316 µM
# [22] = second compound 0.3 µM, first compound 1 µM
# [23] = second compound 0.3 µM, first compound 3.16 µM
# [24] = second compound 0.3 µM, first compound 10 µM
# [25] = second compound 0.949 µM, first compound 0.0316 µM
# [26] = second compound 0.949 µM, first compound 0.1 µM
# [27] = second compound 0.949 µM, first compound 0.316 µM
# [28] = second compound 0.949 µM, first compound 1 µM
# [29] = second compound 0.949 µM, first compound 3.16 µM
# [30] = second compound 0.949 µM, first compound 10 µM
# [31] = second compound 3 µM, first compound 0.0316 µM
# [32] = second compound 3 µM, first compound 0.1 µM
# [33] = second compound 3 µM, first compound 0.316 µM
# [34] = second compound 3 µM, first compound 1 µM
# [35] = second compound 3 µM, first compound 3.16 µM
# [36] = second compound 3 µM, first compound 10 µM
# 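Further: compound exposure lasted 7 days starting three days after spheroid seeding.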
# 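Wherever viability, T/C is given: 100% = DMSO vehicle control wells with viability set relative to vehicle.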
compound,measurement,setting,value
C#Cc1c(F)ccc2cc(O)cc(-c3ncc4c(N5CC6CCC(C5)N6)nc(OCC56CCCN5CC(F)C6)nc4c3F)c12 (stereo not drawn) + CCN1C(C(=O)NC23CCC(C(=O)O)(CC2)CC3)C(c2cccc(Cl)c2F)C2(C(=O)Nc3cc(Cl)ccc32)C12CCCCC2,pIC50,second compound 0.00949 µM,< 5.00
same,pIC50,second compound 0.03 µM,< 5.00
same,pIC50,second compound 0.0949 µM,< 5.00
same,pIC50,second compound 0.3 µM,< 5.00
same,pIC50,second compound 0.949 µM,< 5.00
same,pIC50,second compound 3 µM,< 5.00
same,"viability, T/C",[1],100%
same,"viability, T/C",[2],100%
same,"viability, T/C",[3],98.2%
same,"viability, T/C",[4],92.6%
same,"viability, T/C",[5],81.2%
same,"viability, T/C",[6],59.4%
same,"viability, T/C",[7],107%
same,"viability, T/C",[8],102%
same,"viability, T/C",[9],102%
same,"viability, T/C",[10],106%
same,"viability, T/C",[11],83.8%
same,"viability, T/C",[12],63.1%
same,"viability, T/C",[13],104%
same,"viability, T/C",[14],108%
same,"viability, T/C",[15],94.1%
same,"viability, T/C",[16],88.9%
same,"viability, T/C",[17],70.8%
same,"viability, T/C",[18],64.2%
same,"viability, T/C",[19],105%
same,"viability, T/C",[20],110%
same,"viability, T/C",[21],112%
same,"viability, T/C",[22],91.9%
same,"viability, T/C",[23],78.6%
same,"viability, T/C",[24],59.8%
same,"viability, T/C",[25],101%
same,"viability, T/C",[26],104%
same,"viability, T/C",[27],102%
same,"viability, T/C",[28],89.7%
same,"viability, T/C",[29],79.3%
same,"viability, T/C",[30],64.8%
same,"viability, T/C",[31],102%
same,"viability, T/C",[32],102%
same,"viability, T/C",[33],97.8%
same,"viability, T/C",[34],84.7%
same,"viability, T/C",[35],63.1%
same,"viability, T/C",[36],67.9%
C=C(F)C(=O)N1CCN(c2nc(OCC3CCCN3C)nc3c2CCN(c2cccc4cccc(Cl)c24)C3)CC1CC#N (stereo not drawn) + CCN1C(C(=O)NC23CCC(C(=O)O)(CC2)CC3)C(c2cccc(Cl)c2F)C2(C(=O)Nc3cc(Cl)ccc32)C12CCCCC2,pIC50,second compound 0.00949 µM,< 5.00
same,pIC50,second compound 0.03 µM,5.25
same,pIC50,second compound 0.0949 µM,5.25
same,pIC50,second compound 0.3 µM,5.24
same,pIC50,second compound 0.949 µM,5.28
same,pIC50,second compound 3 µM,5.33
same,"viability, T/C",[1],62.2%
same,"viability, T/C",[2],64%
same,"viability, T/C",[3],61.5%
same,"viability, T/C",[4],58.6%
same,"viability, T/C",[5],85.7%
same,"viability, T/C",[6],32.8%
same,"viability, T/C",[7],79%
same,"viability, T/C",[8],65.3%
same,"viability, T/C",[9],59.7%
same,"viability, T/C",[10],61.2%
same,"viability, T/C",[11],81.8%
same,"viability, T/C",[12],30.2%
same,"viability, T/C",[13],73.4%
same,"viability, T/C",[14],60%
same,"viability, T/C",[15],60.5%
same,"viability, T/C",[16],63.7%
same,"viability, T/C",[17],74.3%
same,"viability, T/C",[18],33.5%
same,"viability, T/C",[19],81.1%
same,"viability, T/C",[20],64.4%
same,"viability, T/C",[21],65%
same,"viability, T/C",[22],66.3%
same,"viability, T/C",[23],74.8%
same,"viability, T/C",[24],31.8%
same,"viability, T/C",[25],73.4%
same,"viability, T/C",[26],65.9%
same,"viability, T/C",[27],63.8%
same,"viability, T/C",[28],62.7%
same,"viability, T/C",[29],83.8%
same,"viability, T/C",[30],24.1%
same,"viability, T/C",[31],70.7%
same,"viability, T/C",[32],57%
same,"viability, T/C",[33],61%
same,"viability, T/C",[34],71.9%
same,"viability, T/C",[35],82.3%
same,"viability, T/C",[36],13.8%
C=CC(=O)N1CCN(c2nc(=O)n(-c3c(C)ccnc3C(C)C)c3nc(-c4c(O)cccc4F)c(F)cc23)C(C)C1 (stereo not drawn) + CCN1C(C(=O)NC23CCC(C(=O)O)(CC2)CC3)C(c2cccc(Cl)c2F)C2(C(=O)Nc3cc(Cl)ccc32)C12CCCCC2,pIC50,second compound 0.00949 µM,< 5.00
same,pIC50,second compound 0.03 µM,< 5.00
same,pIC50,second compound 0.0949 µM,< 5.00
same,pIC50,second compound 0.3 µM,< 5.00
same,pIC50,second compound 0.949 µM,< 5.00
same,pIC50,second compound 3 µM,< 5.00
same,"viability, T/C",[1],82%
same,"viability, T/C",[2],73.5%
same,"viability, T/C",[3],60.5%
same,"viability, T/C",[4],64.8%
same,"viability, T/C",[5],68.7%
same,"viability, T/C",[6],59.1%
same,"viability, T/C",[7],75.4%
same,"viability, T/C",[8],70.1%
same,"viability, T/C",[9],68.7%
same,"viability, T/C",[10],68.7%
same,"viability, T/C",[11],65.8%
same,"viability, T/C",[12],65.6%
same,"viability, T/C",[13],80.7%
same,"viability, T/C",[14],67.2%
same,"viability, T/C",[15],62.8%
same,"viability, T/C",[16],73%
same,"viability, T/C",[17],66.2%
same,"viability, T/C",[18],61.8%
same,"viability, T/C",[19],75.1%
same,"viability, T/C",[20],73.2%
same,"viability, T/C",[21],65.6%
same,"viability, T/C",[22],60.9%
same,"viability, T/C",[23],67.7%
same,"viability, T/C",[24],63.2%
same,"viability, T/C",[25],84.7%
same,"viability, T/C",[26],68.3%
same,"viability, T/C",[27],62.8%
same,"viability, T/C",[28],69.8%
same,"viability, T/C",[29],73.7%
same,"viability, T/C",[30],61.7%
same,"viability, T/C",[31],79.3%
same,"viability, T/C",[32],71.5%
same,"viability, T/C",[33],61%
same,"viability, T/C",[34],68.1%
same,"viability, T/C",[35],65.8%
same,"viability, T/C",[36],58.6%
CNC(C)C(=O)NC1CN(S(=O)(=O)c2cccc(S(=O)(=O)N3CCC4CCC(C(=O)NC(c5ccccc5)c5ccccc5)N4C(=O)C(NC(=O)C(C)NC)C3)c2)CCC2CCC(C(=O)NC(c3ccccc3)c3ccccc3)N2C1=O (stereo not drawn) + CCN1C(C(=O)NC23CCC(C(=O)O)(CC2)CC3)C(c2cccc(Cl)c2F)C2(C(=O)Nc3cc(Cl)ccc32)C12CCCCC2,pIC50,second compound 0.00949 µM,< 6.00
same,pIC50,second compound 0.03 µM,< 6.00
same,pIC50,second compound 0.0949 µM,< 6.00
same,pIC50,second compound 0.3 µM,< 6.00
same,pIC50,second compound 0.949 µM,< 6.00
same,pIC50,second compound 3 µM,< 6.00
same,"viability, T/C","second compound 0.00949 µM, first compound 0.00316 µM",110%
same,"viability, T/C","second compound 0.00949 µM, first compound 0.01 µM",106%
same,"viability, T/C",[1],96.8%
same,"viability, T/C",[2],103%
same,"viability, T/C",[3],109%
same,"viability, T/C",[4],105%
same,"viability, T/C","second compound 0.03 µM, first compound 0.00316 µM",102%
same,"viability, T/C","second compound 0.03 µM, first compound 0.01 µM",99%
same,"viability, T/C",[7],105%
same,"viability, T/C",[8],105%
same,"viability, T/C",[9],113%
same,"viability, T/C",[10],106%
same,"viability, T/C","second compound 0.0949 µM, first compound 0.00316 µM",118%
same,"viability, T/C","second compound 0.0949 µM, first compound 0.01 µM",103%
same,"viability, T/C",[13],103%
same,"viability, T/C",[14],95%
same,"viability, T/C",[15],106%
same,"viability, T/C",[16],99.5%
same,"viability, T/C","second compound 0.3 µM, first compound 0.00316 µM",123%
same,"viability, T/C","second compound 0.3 µM, first compound 0.01 µM",113%
same,"viability, T/C",[19],107%
same,"viability, T/C",[20],92.8%
same,"viability, T/C",[21],104%
same,"viability, T/C",[22],102%
same,"viability, T/C","second compound 0.949 µM, first compound 0.00316 µM",112%
same,"viability, T/C","second compound 0.949 µM, first compound 0.01 µM",107%
same,"viability, T/C",[25],96.2%
same,"viability, T/C",[26],104%
same,"viability, T/C",[27],95.1%
same,"viability, T/C",[28],88.5%
same,"viability, T/C","second compound 3 µM, first compound 0.00316 µM",98.9%
same,"viability, T/C","second compound 3 µM, first compound 0.01 µM",109%
same,"viability, T/C",[31],90.3%
same,"viability, T/C",[32],101%
same,"viability, T/C",[33],89.5%
same,"viability, T/C",[34],95.2%
